US20110039896A1, “NOVEL 2-PYRROLIDINYL-3-AMIDO-6-AMINO-PYRIDINE DERIVATIVES USEFUL AS POTASSIUM CHANNEL ACTIVATORS” (NeuroSearch A/S, priority 2007, published 2011)

Molecular target: T1, human Kv72+3 channels (Homo sapiens, UniProt O43525+O43526)
T1 construct: expressed in transfected cells
Assay: Patch-clamp on HEK293 cells stably expressing human Kv7.2+3 channels
Type: cell-based
Settings: conc. 0.03 μM, −30 mV, 20 ms, current relative to baseline current defined as 100%, read-out: IK (%)
From the text: The effect obtained by these channel activators is described as a percentage increase in baseline current at a given concentration. The baseline current is defined as 100%, and an increase in current is expressed relative to this, i.e. an increase from 1 nA to 1.2 nA is reported as 120%.

SMILES	activity at 0.03 µM
O=C(Cc1ccc(C(F)(F)F)c(F)c1)Nc1ccc(NCc2ccc(F)cc2)nc1N1CCCC1 [Compound 1, N-[6-(4-Fluoro-benzylamino)-2-pyrrolidin-1-yl-pyridin-3-yl]-2-(3-fluoro-4-trifluoromethyl-phenyl)-acetamide]	306%
O=C(Nc1ccc(NCc2ccc(F)cc2)nc1N1CCCC1)[C@@H]1C[C@H]1c1ccccc1 [Compound 7, (R)-2-Phenyl-cyclopropanecarboxylic acid [6-(4-fluoro-benzylamino)-2-pyrrolidin-1-yl-pyridin-3-yl]-amide]	192%
CC(C)(C)CC(=O)Nc1ccc(NCc2ccc(F)cc2)nc1N1CCCC1 [Compound 9, N-[6-(4-Fluoro-benzylamino)-2-pyrrolidin-1-yl-pyridin-3-yl]-3,3-dimethyl-butyramide]	239%
CC(C)(C)CC(=O)Nc1ccc(NCc2ccc3c(c2)OCO3)nc1N1CCCC1 [Compound 14, N-{6-[(Benzo[1,3]dioxol-5-ylmethyl)-amino]-2-pyrrolidin-1-yl-pyridin-3-yl}-3,3-dimethyl-butyramide]	155%
N#Cc1ccc(CNc2ccc(NC(=O)Cc3cc(F)cc(F)c3)c(N3CCCC3)n2)cc1 [Compound 17, N-[6-(4-Cyano-benzylamino)-2-pyrrolidin-1-yl-pyridin-3-yl]-2-(3,5-difluoro-phenyl)-acetamide]	490%
COc1ccc(CNc2ccc(NC(=O)Cc3cc(F)cc(F)c3)c(N3CCCC3)n2)cc1 [Compound 19]	842%
